Results published in ChEMBL document CHEMBL1147058, “An antibiotic produced by an insect-pathogenic bacterium suppresses host defenses through phenoloxidase inhibition” (Proc Natl Acad Sci U S A, 2007).
Activity calls are given as the source filed them. The calls are words filed in the database; no cut-off is given here.

What was measured:
[1] = biological target: T1, Prophenoloxidase (Manduca sexta) (UniProt Q0VJU6); assay: Inhibition of Manduca sexta phenoloxidase at 60 uM
T1 sequence (whole entry): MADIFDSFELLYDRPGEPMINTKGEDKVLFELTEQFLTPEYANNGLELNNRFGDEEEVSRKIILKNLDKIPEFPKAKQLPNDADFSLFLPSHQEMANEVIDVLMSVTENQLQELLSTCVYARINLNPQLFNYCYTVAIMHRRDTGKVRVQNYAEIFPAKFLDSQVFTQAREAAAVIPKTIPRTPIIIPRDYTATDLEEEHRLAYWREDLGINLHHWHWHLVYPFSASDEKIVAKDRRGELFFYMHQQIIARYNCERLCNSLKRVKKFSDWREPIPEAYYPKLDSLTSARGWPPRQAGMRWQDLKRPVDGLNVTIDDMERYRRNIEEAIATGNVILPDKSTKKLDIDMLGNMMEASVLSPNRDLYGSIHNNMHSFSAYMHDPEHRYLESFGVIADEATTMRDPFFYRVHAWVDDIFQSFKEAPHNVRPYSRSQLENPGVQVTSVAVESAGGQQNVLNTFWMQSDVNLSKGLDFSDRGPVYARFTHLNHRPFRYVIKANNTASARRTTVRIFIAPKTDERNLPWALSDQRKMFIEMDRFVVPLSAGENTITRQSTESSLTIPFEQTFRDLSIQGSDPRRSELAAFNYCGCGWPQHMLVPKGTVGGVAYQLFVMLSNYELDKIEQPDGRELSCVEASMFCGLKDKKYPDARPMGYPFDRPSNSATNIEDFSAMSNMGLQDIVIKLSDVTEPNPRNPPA

Manduca sexta = assay: Inhibition of immune system assessed as suppression of melanotic nodule formation in Photorhabdus luminescens TT01 infected Manduca sexta; type: functional, organism-based
Photorhabdus luminescens [2] = assay: Induction of virulence of Photorhabdus luminescens TT01 assessed as decrease in survival of Photorhabdus luminescens TT01 infected Manduca sexta; type: functional
Photorhabdus luminescens [3] = assay: Induction of virulence of Photorhabdus luminescens TT01 assessed as decrease in survival of Photorhabdus luminescens TT01 infected Manduca sexta in presence of cinnamic acid; type: functional
Photorhabdus luminescens [4] = assay: Induction of virulence of Photorhabdus luminescens TT01 assessed as increase in proliferation of Photorhabdus luminescens TT01 in Manduca sexta; type: functional
[5] = Drug level in Photorhabdus luminescens TT01 infected Manduca sexta hemolymph after 24 hrs by TLC plate method; type: ADME, tissue-based; conditions: read-out: Drug uptake
Photorhabdus luminescens [6] = assay: Induction of virulence of Photorhabdus luminescens TT01 assessed as increase in proliferation of Photorhabdus luminescens TT01 in Manduca sexta in presence of cinnamic acid; type: functional
Photorhabdus luminescens [7] = assay: Induction of virulence of stlA deficient Photorhabdus luminescens BMM901 assessed as decrease in survival of Photorhabdus luminescens BMM901 infected Manduca sexta in presence of cinnamic acid; type: functional
Photorhabdus luminescens [8] = assay: Induction of virulence of stlA deficient Photorhabdus luminescens BMM901 assessed as increase in proliferation of Photorhabdus luminescens BMM901 in Manduca sexta in presence of cinnamic acid; type: functional

For `CC(C)c1c(O)cc(/C=C/c2ccccc2)cc1O` [TAPINAROF], the Activity [1] was “Dose-dependent effect”, the Activity (Manduca sexta) was “Active” and the Activity (Photorhabdus luminescens [2]) was “Active”. For the same compound, the Activity (Photorhabdus luminescens [3]) was “Active”, the Activity (Photorhabdus luminescens [4]) was “Active” and the concentration at 24 h [5] was 275 µg/mL. For the same compound, the Activity (Photorhabdus luminescens [6]) was “Active”, the Activity (Photorhabdus luminescens [7]) was “Active” and the Activity (Photorhabdus luminescens [8]) was “Active”.
